Measured values published in patent US20090068744A1, “VITREOUS CELL LINE” (SENJU PHARMACEUTICAL CO., LTD., priority 2006, published 2009).

Each substance was assayed on VEGF mRNA expression by a vitreous cell line (assay: VEGF mRNA expression by RT-PCR after cytokine stimulation of the vitreous cell line). Conditions: cytokine 10 ng/ml, up to 48 hours; FIG. 7, FIG. 9.
Format: cell-based, swine
Description: Changes of VEGF expression due to cytokine stimulation in the vitreous cell line established in Example 1 were examined. The expression of VEGF at an mRNA level was examined by RT-PCR, and the expression at a protein level was examined by ELISA.
To be specific, when the vitreous cell line reached 50-60% confluent, the medium for the cells was exchanged with DMEM containing 1% bovine serum. […] Total RNA was extracted from the stimulated cells, cDNA was synthesized, and PCR was conducted using VEGF primers. The medium of the stimulated cells was used for ELISA. Since an appropriate antibody to swine VEGF is not available, VEGF protein concentration was measured by ELISA using an antibody to human VEGF, and the result was calculated as a reference value led from a human VEGF standard product. PCR was conducted using TOYOBO KOD plus kit and Gene PCR System 9700 (Applied Biosystem). The conditions of PCR were as follows:
95° C. 120 seconds; (95° C. 15 seconds, 62° C. 30 seconds, 68° C. 30 seconds)×30 cycles; 68° C. 90 seconds. ELISA was entrusted to Mitsubishi BCL.
With TNFα the “VEGF mRNA expression level” value was “a significant change in the VEGF mRNA expression level was not observed”. TGFβ was tested, and the “VEGF mRNA expression level” value was “a significant change in the VEGF mRNA expression level was not observed”. For “IL-6: cytokine named among other cytokines used for stimulation”, the “VEGF mRNA expression level” value was “a significant change in the VEGF mRNA expression level was not observed”. With “IL-1β: cytokine used to stimulate the vitreous cell line (10 ng/ml)” the “VEGF mRNA expression level” value was “a significant change in the VEGF mRNA expression level was not observed”. With “PDGF-AA: cytokine used to stimulate the vitreous cell line (10 ng/ml)” the “VEGF mRNA expression level” value was “a significant change in the VEGF mRNA expression level was not observed”.

What follows are substances tested on HAS2 expression by a vitreous cell line (assay: HAS2 mRNA expression by RT-PCR after cytokine stimulation of the vitreous cell line). Conditions: cell line transfected with Smad2, 3 or 4; FIG. 5.
Format: cell-based, swine
Description: Next, expression of hyaluronic acid synthase (HAS)2 and the effect of PDGF-BB and/or TGF-β1 on the hyaluronic acid production in the established vitreous cell line were examined. The expression was observed by RT-PCR.
To be specific, when the vitreous cell line was 50-60% confluent, the medium of the cells was exchanged with DMEM containing 1% bovine serum and, after culturing for 24 hr, the cells were stimulated with TGF-β1 (10 ng/ml) and PDGF-BB (10 ng/ml). In a part of the examination, Smad2, 3 or 4 was transfected into the cell line after 6 hr from the medium exchange. The cells and culture supernatant were recovered at 3, 6, 24 and 48 hr after the cytokine stimulation (FIG. 2). Total RNA was extracted from the cells, cDNA was synthesized, and RT-PCR was performed using primers specific to HAS2. Using Roche FastStart High Fidelity PCR System, PCR was performed on Gene Amp PCR System 9700 (Applied Biosystems). The PCR conditions were as follows:
95° C. 2 min.→(95° C. 30 seconds→X° C. 30 seconds→72° C. […])×Y cycle→72° C. 7 min
X=60, Y=25 . . . beta-Actin
With “TGF-β1: cytokine used to stimulate the vitreous cell line (10 ng/ml)” the “expression of HAS2 under forced expression of Smad2, 3 or 4” value was “resulted in the expression of HAS2”.
